Experimental data published in patent US4442115A, “2'Hydroxy tetrazole-5-carboxanilides and anti-allergic use thereof” (May & Baker Limited, priority 1977, dated 1984).

Assays:
Type in all cases: in vivo
[1] = test system: passive cutaneous anaphylactic (PCA) reaction; assay: suppression of passive cutaneous anaphylactic (PCA) reaction, intravenous administration; conditions: Rattus norvegicus, rats, i.v., just before injection of allergen, read-out: ED 100 (i.v.): intravenous dose which produces 100% inhibition of the PCA reaction
Text: (§1) In pharmacological tests the new compounds suppress the passive cutaneous anaphylactic (PCA) reaction resulting from combination of tissue-fixed reaginic antibodies with the appropriate antigenic material (termed reagin-allergen combination) and carried out in an essentially similar manner to that described by Ogilvie [Nature (Lond.), (1964), 204, 91-92; Immunology, (1967), 12, 112-131]. In the method used to test these compounds sera were obtained from rats which had been infected with larvae of the nematode parasite Nippostrongylus brasiliensis; as a result of the parasitic infestation reaginic antibodies are elaborated in the host mammal and are found in sera removed from such animals. Other, non-infected, rats received intradermal injections of appropriate dilutions of such sera and were then given the allergenic material along with Evans' blue dye intravenously forty-eight hours later.
(§2) The allergenic material consisted of supernatant fluid after centrifugation of homogenates of adult Nippostrongylus brasiliensis worms which had been macerated in Tyrode's solution. The sites of PCA reactions were visualised by the effusion of Evans' blue dye from the circulation into those areas as a result of increased capillary permeability caused by the release of biologically-active substances from cells where reagin-allergen combination had occurred. The new compounds when given intravenously to the rats just before injection of allergen, or administered orally thirty minutes before intravenous injection of allergen, were able to prevent the development of the PCA reaction, as shown below in Table I and Table II.

[2] = test system: passive cutaneous anaphylactic (PCA) reaction; assay: suppression of passive cutaneous anaphylactic (PCA) reaction, oral administration; conditions: Rattus norvegicus, rats, p.o., thirty minutes before intravenous injection of allergen, read-out: ED 50 (p.o.): oral dose which produces 50% inhibition of the PCA reaction
Text: as §1, §2

oral toxicity in mice = conditions: 1000 mg/kg animal body weight, observation period of 3 days

SMILES | ED100 [1] | ED50 [2] | deaths during observation period (oral toxicity in mice)
CC(=O)c1cc(N)cc(NC(=O)c2nnn[nH]2)c1O [P, 3'-acetyl-5'-amino-2'-hydroxytetrazole-5-carboxanilide] | 0.05 mg/kg |  | 
CC(=O)c1cc(F)cc(NC(=O)c2nnn[nH]2)c1O [K, 3'-acetyl-5'-fluoro-2'-hydroxytetrazole-5-carboxanilide] | 0.01 mg/kg |  | 
CCC(=O)c1cc(CC)cc(NC(=O)c2nnn[nH]2)c1O [AA, 5'-ethyl-2'-hydroxy-3'-propionyltetrazole-5-carboxanilide] | 0.01 mg/kg | 1.3 mg/kg | 
COC(=O)c1cc(C)cc(NC(=O)c2nnn[nH]2)c1O [W, 2'-hydroxy-3'-methoxycarbonyl-5'-methyltetrazole-5-carboxanilide] | 0.05 mg/kg | 5.6 mg/kg | 
COc1cc(Br)cc(NC(=O)c2nnn[nH]2)c1O [CC, 5'-bromo-2'-hydroxy-3'-methoxytetrazole-5-carboxanilide] | 0.05 mg/kg | 16 mg/kg | 
CC(=NO)c1cc(C)cc(NC(=O)c2nn[nH]n2)c1O [Compound DD, 2'-hydroxy-3'-(1-hydroxyimino)ethyl-5'-methyltetrazole-5-carboxanilide] | 0.002 mg/kg |  | 
CCC(=O)c1cc(C)cc(NC(=O)c2nnn[nH]2)c1O [BB, 2'-hydroxy-5'-methyl-3'-propionyltetrazole-5-carboxanilide] | 0.02 mg/kg | 0.88 mg/kg | 
CCCc1cc(NC(=O)c2nnn[nH]2)c(O)c(C(C)=O)c1 [Y, 3'-acetyl-2'-hydroxy-5'-propyltetrazole-5-carboxanilide] | 0.01 mg/kg | 0.46 mg/kg | 
CC(=O)c1cc(Br)cc(NC(=O)c2nnn[nH]2)c1O [L, 3'-acetyl-5'-bromo-2'-hydroxytetrazole-5-carboxanilide] | 0.05 mg/kg |  | 
CCOC(=O)c1cc(C)cc(NC(=O)c2nnn[nH]2)c1O [X, 3'-ethoxycarbonyl-2'-hydroxy-5'-methyltetrazole-5-carboxanilide] | 0.01 mg/kg | 36 mg/kg | 
CC(=O)c1cc([N+](=O)[O-])cc(NC(=O)c2nnn[nH]2)c1O [E, 3'-acetyl-2'-hydroxy-5'-nitrotetrazole-5-carboxanilide] | 0.02 mg/kg | 0.04 mg/kg | 
COc1cc(C)cc(NC(=O)c2nnn[nH]2)c1O [T, 2'-hydroxy-3'-methoxy-5'-methyltetrazole-5-carboxanilide] | 0.02 mg/kg | 6.5 mg/kg | 
Cc1cc(NC(=O)c2nnn[nH]2)c(O)c(C(=O)N(C)C)c1 [V, 3'-(N,N-dimethylcarbamoyl)-2'-hydroxy-5'-methyltetrazole-5-carboxanilide] | 0.2 mg/kg |  | 
CC(=O)c1cccc(NC(=O)c2nnn[nH]2)c1O [Z, 3'-acetyl-2'-hydroxytetrazole-5-carboxanilide] | 0.005 mg/kg | 0.06 mg/kg | 
COc1cccc(NC(=O)c2nnn[nH]2)c1O [R, 2'-hydroxy-3'-methoxytetrazole-5-carboxanilide] | 0.02 mg/kg | 2.9 mg/kg | 
COc1cc(NC(=O)c2nnn[nH]2)c(O)c(C(C)=O)c1 [M, 3'-acetyl-2'-hydroxy-5'-methoxytetrazole-5-carboxanilide] | 0.01 mg/kg |  | 
CCCC(=O)c1cc(C)cc(NC(=O)c2nnn[nH]2)c1O [U, 3'-butyryl-2'-hydroxy-5'-methyltetrazole-5-carboxanilide] | 0.05 mg/kg |  | 
Cc1cc(NC(=O)c2nnn[nH]2)c(O)c(C(=O)C(C)C)c1 [G, 2'-hydroxy-3'-isobutyryl-5'-methyltetrazole-5-carboxanilide] | 0.02 mg/kg | 3.2 mg/kg | 
CCc1cc(NC(=O)c2nnn[nH]2)c(O)c(C(C)=O)c1 [Compound D, 3'-acetyl-5'-ethyl-2'-hydroxytetrazole-5-carboxanilide] | 0.01 mg/kg | 0.19 mg/kg | 
CCc1cc(NC(=O)c2nnn[nH]2)c(O)c(OC)c1 [S, 5'-ethyl-2'-hydroxy-3'-methoxytetrazole-5-carboxanilide] | 0.01 mg/kg | 1.8 mg/kg | 
CC(=O)c1cc(C#N)cc(NC(=O)c2nnn[nH]2)c1O [H, 3'-acetyl-5'-cyano-2'-hydroxytetrazole-5-carboxanilide] | 0.01 mg/kg | 0.4 mg/kg | 
CC(=O)c1cc(C)cc(NC(=O)c2nnn[nH]2)c1O [Compound B, 3'-acetyl-2'-hydroxy-5'-methyltetrazole-5-carboxanilide] | 0.01 mg/kg | 0.06 mg/kg | no deaths occurred
CON=C(C)c1cc(C)cc(NC(=O)c2nn[nH]n2)c1O [EE, 2'-hydroxy-3'-(1-methoxyimino)ethyl-5'-methyltetrazole-5-carboxanilide] | 0.02 mg/kg |  | 
O=C(Nc1ccccc1O)c1nnn[nH]1 [Compound A, 2'-hydroxytetrazole-5-carboxanilide] | 0.2 mg/kg | 5.5 mg/kg | 
CCC(=O)c1cc(C#N)cc(NC(=O)c2nnn[nH]2)c1O [N, 5'-cyano-2'-hydroxy-3'-propionyltetrazole-5-carboxanilide] | 0.02 mg/kg |  | 
Cc1cc(NC(=O)c2nnn[nH]2)c(O)c(C(=O)C2CC2)c1 [I, 3'-cyclopropylcarbonyl-2'-hydroxy-5'-methyltetrazole-5-carboxanilide] | 0.02 mg/kg |  | no deaths occurred
CCc1cccc(NC(=O)c2nnn[nH]2)c1O [Compound C, 3'-ethyl-2'-hydroxytetrazole-5-carboxanilide] | 0.1 mg/kg | 0.7 mg/kg | 
